How the values were obtained:
[1] = in vivo; cited from earlier work
[2] = test system: caspase-1 activity in J774A.1 cells; test: Caspase-1 activity in J774A.1 cell lysates after LPS and nigericin stimulation; format: cell-based, mouse; conditions: 50 μM, LPS/NIG set at 100%, n=3, p<0.05
Procedure: (§1) J774A.1 murine macrophages cells were stimulated with 1 μg/ml lipopolysaccharide (LPS) for 4 hours and either nigericin (NIG, 10 μM) or ATP (5 mM) was added for 1 hour. Dapansutrile OLT1177® was added to the cells either 30 minutes following LPS stimulation or at the same time as ATP.
Caspase-1 activity is expressed as percent change of the mean value of each assay (n=3) with LPS/NIG set at 100%. Caspase-1 (Cas-1) activity was reduced by 35% (p<0.05) in an enzymatic assay of cell lysate from stimulated cells in the presence of dapansutrile, comparing with control.

[3] = test system: mouse IL-1β in synovial membrane; test: Zymosan-induced knee arthritis in mice: IL-1β in synovial membrane (ELISA); format: in vivo; conditions: 600 mg/kg oral gavage, 24 hours, vs untreated mice
Procedure: (§2) Arthritis was induced in mice by intra-articular injection of zymosan (180 μg) into the knee joint (at time zero) of both knees in each mouse. Mice were treated by oral gavage with vehicle (water, n=5) or dapansutrile in vehicle (600 mg/kg, n=4) at times −25 hr, −13 hr, and −1 hr. After zymosan injection at time zero, mice were further treated with vehicle or dapansutrile (600 mg/kg) at times +11 hr and +23 hr. Mice were sacrificed 24 hours following the Zymosan intraarticulr idministration.
In addition, synovial membrane was taken from one knee per mouse and the cells were lysed for measurement of mouse IL-1β, using an ELISA kit from R&D Systems, Inc., following manufacturer's protocols. The results are shown as mean±standard error of mean and statistical evaluation is performed.

[4] = test system: zymosan-induced knee joint swelling in mice; test: Zymosan-induced knee arthritis in mice: macroscopic joint swelling; format: in vivo; conditions: 600 mg/kg oral gavage, zymosan 180 μg intra-articular, 24 hours, vs vehicle-treated mice
Procedure: Zymosan injected directly into the knee joint of mice elicits an inflammatory response and is used as a model of arthritis (Verschure et al, Ann. Rheum Dis. 53:455-460, 1994). Endpoints measured in this model include knee joint swelling score, cytokine levels in the synovial tissue and microscopic pathology of the knee.
as §2
Macroscopic joint swelling was assessed on all knees after the skin is removed using a scoring system ranging from 0 to 3, with 0 being no swelling and 3 being severe swelling.

[5] = test system: IL-1β release from human monocytes-derived macrophages; test: Suppression of IL-1β release from human monocytes-derived macrophages (LPS priming, nigericin release, ELISA); format: cell-based
Procedure: Peripheral blood mononuclear cells (PBMCs) were isolated from blood of 11 healthy human donors and differenciates in macrophages using GM-CSF (5 ng/ml) for 5 days. They were stimulated with 1 μg/mL with lipopolysaccharide (LPS, priming phase) at time zero. At 30 minutes, they were incubated with different concentrations of dapansutrile (OLT1177®) from 0.001-50 μM. At 4 hours, 10 μM of nigericin (NIG, release phase) was added. At the end of an 5 hour incubation period, the supernatant was harvested and assayed for IL-1β using respective ELISA kits following manafacturer's protocols.

[6] = test system: caspase-1 (p10) in J774A.1 cells; test: Western blot for caspase-1 (p45 and p10) in J774A.1 cells after LPS/ATP stimulation; format: cell-based, mouse
Procedure: as §1
A subunit of activated caspase-1 (p10) was reduced in J774A.1 cells in the presence of dapansutrile.

Compound	Half-life [1] [days]	Reduction of caspase-1 activity [2] [%]	Level of IL-1β in synovial membrane [3]	Macroscopic joint swelling (score 0 to 3) [4]	Release of IL-1β from stimulated monocytes-derived macrophages ([5]; LPS priming, nigericin release, compared to control)	Concentration at which maximum suppression effect on IL-1β release was observed ([5]; human monocytes-derived macrophages, LPS 1 μg/mL + nigericin 10 μM, tested 0.001-50 μM) [µM]	Subunit of activated caspase-1 (p10), Western blot [6]
Canakinumab: fully human selective monoclonal anti-IL-1β antibody	28	–	–	–	–	–	–
CS(=O)(=O)CCC#N [dapansutrile, 3-methanesulfonylpropionitrile]	–	35	significantly reduced	significant reduction in the joint swelling	suppresses the release of IL-1β	1	reduced

Source: patent publication US20200170990A1, “METHOD FOR TREATING SCHNITZLER'S SYNDROME” (OLATEC THERAPEUTICS LLC, priority 2017, published 2020)
